Assay results from patent US20010018209A1, “Cell compositions” (Takara Shuzo Co., Ltd., priority 1996, published 2001).

Key:
[1] = tested on: HL-60 cells; experiment: Cell growth inhibitory activity, MTT, observed under a microscope; assay type: cell-based; conditions: 48 hours
Description: (§1) (3) The fibroblasts, NIH/3T3 cells (ATCC CRL-1658), were dispersed with trypsin according to a conventional method and suspended in Dulbecco modified Eagle's culture medium containing 10% bovine serum at a concentration of 5× 10^4 cells/ml. Then, each 90 μl portion thereof was distributed into each well of a 96-well microtiter plate. To each well was added an aqueous solution (10 μl) of 15.6, 31.3, 62.5, 125, 250, 500 or 1,000 μM cyclopentenone, or water (10 μl) as a control and the cells on that plate were incubated at 37° C. for 48 hours in the presence of 5% CO2. Further, 5 mg/ml MTT phosphate buffered saline (10 μl) was added and the incubation was continued for additional 4 hours. Cell growth was observed under a microscope and the apoptosis inducing activity was estimated as cell growth inhibitory activity.
The same procedure was repeated with respect to HL-60 cells except that the cells were cultured in RPMI1640 culture medium containing 10% fetal bovine serum.

[2] = tested on: cancer cells; experiment: Apoptosis after addition to a culture broth of cancer cells (general statement); assay type: cell-based; conditions: within one to several days after addition
[3] = tested on: mouse; experiment: Toxicity on administration to mouse (general statement); conditions: in vivo
[4] = tested on: normal cells; experiment: Toxicity / apoptosis against normal cells (general statement); assay type: cell-based
[5] = tested on: HL-60 cells; experiment: Cell growth inhibitory activity by MTT, absorbance at 590 nm (HL-60 compared with HUVEC); assay type: cell-based; conditions: final 1-100 μM, 48 hours
[6] = tested on: fibroblasts, NIH/3T3 cells (ATCC CRL-1658); experiment: Cell growth inhibitory activity, MTT, observed under a microscope; assay type: cell-based; conditions: 48 hours
Description: as §1

[7] = tested on: Myeloma cells (P3X63Ag8U.1, ATCC CRL-1597); experiment: Apoptosis induction / living cell number in cultured myeloma cells (trypan blue, microscope); assay type: cell-based; conditions: 1 mg/ml, 60 hours
Description: Myeloma cells (P3X63Ag8U.1, ATCC CRL-1597) were cultured at 37° C. in RPMI1640 culture medium (manufactured by Gibco) containing 10% fetal bovine serum (manufactured by JRH Bioscience) treated at 56° C. for 30 minutes and they were suspended in RPMI1640 culture medium containing 10% fetal bovine serum at a concentration of 2.5×10^5 cells/4.5 ml. On the other hand, a dextran sulfate (molecular weight: 0.5 million, manufactured by Oncor) was dissolved in 50 mM HEPES buffer (pH 7.0) containing 120 mM sodium chloride at a concentration of 10 mg/ml and sterilized by filtration. This solution (0.5 ml) was added to the above suspension (4.5 ml) and incubated at 37° C. for 60 hours in the presence of 5% CO2.
The incubated cells were observed under a microscope to examine the degree of growth and cell morphology. […] After initiation of incubation, the living cell number was counted with time by trypan blue staining.
Next, A dextran sulfate (molecular weight: 0.5 million, manufactured by Oncor) was dissolved in 50 mM HEPES buffer (pH 7.0) containing 120 mM sodium chloride in concentration of 10 mg/ml, and treated by heating at 120° C. for 20 minutes. According to the same manner as described above, apoptosis inducing activity was determined by using the dextran sulfate.

Compound	selectivity, tumor cell line HL-60 compared with non-tumor cell line NIH/3T3 [1]	cell growth ([1]; final concentration of 6.25 μM)	cytocidal effect ([1]; final concentration of 6.25 μM)	apoptosis of cancer cells [2]	toxicity in mouse [3]	toxicity against normal cells [4]	cell growth inhibitory activity, HL-60 compared with HUVEC [5]	cell growth ([6]; final concentration of 12.5 μM)	cell growth ([6]; final concentration of 25 μM)	apoptosis inducing activity [7]	cell morphology under a microscope (characteristics of apoptosis) [7]
O=C1C=CC(O)C1O (centres unmarked) [cyclopentenone, 4,5-dihydroxy-2-cyclopenten-1-one]	selective cell growth inhibitory activity and cytocidal activity	no cell growth was observed	almost all the cells were killed	apoptosis of the cancer cells is caused	does not show any toxicity against mouse	does not show any toxicity against normal cells	stronger cell growth inhibitory activity to the cancer cells, HL-60 cells than that to the normal cells, HUVEC cells	the same cell growth as that of the water-added control group	no cell growth was observed	–	–
dextran sulfate	–	–	–	–	–	–	–	–	–	strong apoptosis inducing activity	exhibited characteristics of apoptosis such as cell shrinkage, cell nuclear fragmentation
